According to patent US6072051A, “Nucleoside derivatives and process for preparing the same” (priority 1995, dated 2000):
Like-named read-outs stand apart in the source and are kept apart here.

Tests used:
[1] = system: HBV; assay: Test of Anti-HBV Activity in Hep G2 2.2.15 cell lines; format: cell-based; details: for EC50 / EC90: Hepatitis B virus, HepG2 2.2.15
Procedure: (§1) The anti-HBV activity of the compounds according to the present invention, was tested in Hep G2 2.2.15 cell lines, as using 2',3'-dideoxycytidine as a control compound.

[2] = Toxicity (CC50) in Hep G2 2.2.15 cell lines, anti-HBV test; format: cell-based; details: human, hep g2 2.2.15 cells
Procedure: as §1

[3] = system: HBV; details: Proc. Natl. Acad. Sci. USA, 88, 8495 (1991); Biochem. Pharm., 47, 171 (1994); cited from earlier work
[4] = Hep G2 2.2.15 cell lines, anti-HBV activity, read-out: EC50
[5] = Hep G2 2.2.15 cell lines, anti-HBV activity, read-out: EC90

Q: What does the source list for `Nc1ccn([C@@H]2C[C@](F)(CO)CO2)c(=O)n1` (relative stereo) [Compound 7, cis-2-(Cytosin-1-yl)-4-fluoro-4-hydroxymethyltetrahydrofuran]?
A: EC50 [1, 4]: 0.011 µM; EC90 [1, 5]: 0.143 µM; Sl (CC50 /EC90) ([1]; human, hep g2 2.2.15 cells): 10,811; CC50 [2]: 1550 µM

Q: With `Nc1nc(=O)n([C@@H]2C[C@](F)(CO)CO2)cc1F` (relative stereo) [Compound 9, cis-2-(5-Fluorocytosin-1-yl)-4-fluoro-4-hydroxymethyltetrahydrofuran] as the molecule, how does the EC50 [1, 4] read?
A: 0.8 µM

Q: What about the EC90 [1, 5] of the same molecule?
A: 0.7 µM

Q: And the “Sl (CC50 /EC90)” value ([1]; human, hep g2 2.2.15 cells)?
A: 319

Q: What about the CC50 [2] of the same molecule?
A: 2230 µM

Q: For `Cc1cn([C@@H]2C[C@](F)(CO)CO2)c(=O)[nH]c1=O` (relative stereo) [Compound 5, cis-2-(Thymin-1-yl)-4-fluoro-4-hydroxymethyltetrahydrofuran], which EC50 [1, 4] is on record?
A: 0.1 µM

Q: What about the EC90 [1, 5] of the same molecule?
A: 0.8 µM

Q: What about the “Sl (CC50 /EC90)” value ([1]; human, hep g2 2.2.15 cells) of the same molecule?
A: 590

Q: And the CC50 [2]?
A: 472 µM

Q: What does the source list for `Nc1nc(=O)n([C@H]2C[C@](F)(CO)CO2)cc1F` (relative stereo) [Compound 10, trans-2-(5-Fluorocytosin-1-yl)-4-fluoro-4-hydroxymethyltetrahydrofuran]?
A: EC50 [1, 4]: 0.061 µM; EC90 [1, 5]: 0.835 µM; Sl (CC50 /EC90) ([1]; human, hep g2 2.2.15 cells): 1,444; CC50 [2]: 955 µM

Q: What does the source list for `O=c1[nH]c(=O)n([C@@H]2C[C@](F)(CO)CO2)cc1I` (relative stereo) [Compound 15, cis-2-(5-Iodouracil-1-yl)-4-fluoro-4-hydroxymethyltetrahydrofuran]?
A: EC50 [1, 4]: 0.6 µM; EC90 [1, 5]: 4.4 µM; Sl (CC50 /EC90) ([1]; human, hep g2 2.2.15 cells): 501; CC50 [2]: 2200 µM

Q: Which “anti-HBV activity (reported)” value [3] does the source give for `Nc1ccn([C@@H]2CC[C@H](CO)O2)c(=O)n1` [2', 3'-dideoxy-β-L-cytidine] here?
A: have anti-HBV activity

Q: For `O=c1[nH]c(=O)n([C@H]2C[C@](F)(CO)CO2)cc1I` (relative stereo) [Compound 16, trans-2-(5-iodouracil-1-yl)-4-fluoro-4-hydroxymethyltetrahydrofuran], which EC50 [1, 4] is on record?
A: 0.8 µM

Q: What about the EC90 [1, 5] of the same molecule?
A: 5.3 µM

Q: What about the “Sl (CC50 /EC90)” value ([1]; human, hep g2 2.2.15 cells) of the same molecule?
A: 85

Q: What about the CC50 [2] of the same molecule?
A: 451 µM

Q: Which EC50 [1, 4] does the source give for `Nc1ccn([C@H]2C[C@](F)(CO)CO2)c(=O)n1` (relative stereo) [Compound 8, trans-2-(Cytosin-1-yl)-4-fluoro-4-hydroxymethyltetrahydrofuran] here?
A: 0.08 µM

Q: What about the EC90 [1, 5] of the same molecule?
A: 0.522 µM

Q: What about the “Sl (CC50 /EC90)” value ([1]; human, hep g2 2.2.15 cells) of the same molecule?
A: 2,874

Q: And the CC50 [2]?
A: 1500 µM

Q: What does the source list for `Cc1cn([C@H]2C[C@](F)(CO)CO2)c(=O)[nH]c1=O` (relative stereo) [Compound 6, trans-2-(Thymin-1-yl)-4-fluoro-4-hydroxymethyltetrahydrofuran]?
A: EC50 [1, 4]: 0.2 µM; EC90 [1, 5]: 1 µM; Sl (CC50 /EC90) ([1]; human, hep g2 2.2.15 cells): 2,321; CC50 [2]: 2320 µM

Q: Which “anti-HBV activity (reported)” value [3] does the source give for `Nc1ccn([C@H]2CS[C@@H](CO)O2)c(=O)n1` [2',3'-dideoxy-3'-thiacytidine] here?
A: have anti-HBV activity

Q: Which “anti-HBV activity (reported)” value [3] does the source give for `Nc1nc(=O)n([C@H]2CS[C@@H](CO)O2)cc1F` [5-fluoro-2', 3'-dideoxy-3'-thiacytidine] here?
A: have anti-HBV activity

Q: Which EC50 [1] does the source give for `Nc1ccn([C@H]2CC[C@@H](CO)O2)c(=O)n1` [Control compound, 2',3'-dideoxycytidine, reference compound] here?
A: 7.57 µM

Q: What about the EC90 [1] of the same molecule?
A: 35 µM

Q: What about the “Sl (CC50 /EC90)” value ([1]; ratio CC50 /EC90, Hep G2 2.2.15 cell lines) of the same molecule?
A: 30.811

Q: And the CC50 [2]?
A: 1080 µM

Q: With `Nc1nc(=O)n([C@@H]2CC[C@H](CO)O2)cc1F` [2', 3'-dideoxy-β-L-5-fluorocytidine] as the molecule, how does the “anti-HBV activity (reported)” value [3] read?
A: have anti-HBV activity
